# Assay results published in article PMC6297231 (Nature Communications, 2018).
# Columns and labels:
# Test in all cases: cells
# COLO829 = conditions: Homo sapiens, COLO-829, 6 h, read-out: AZD5991 6h EC50
# Experimental: (§1) Cells were plated at 3000 cells/well in 384-well white plates in corresponding cell growth media. […] Caspase-3/7 activation was subsequently determined using a Caspase-Glo 3/7 Reagent (Promega) and viability was assayed using the CellTiter-Glo Reagent (Promega) as described in manufacturer’s instructions. Dose–response curves for caspase-3/7 activation and viability were plotted and analyzed (including EC50 and GI50 determination) using GraphPad Prism. Percentage of caspase activation was calculated against the maximum caspase activation value (100%) obtained with a proprietary cell kill control.
# H1734 = conditions: Homo sapiens, NCI-H1734, 6 h, read-out: AZD5991 6h EC50
# Experimental: as §1
# MUTZ3 = conditions: 6 h, read-out: AZD5991 6h EC50
# Experimental: as §1
# OV90 = conditions: Homo sapiens, OV-90, 6 h, read-out: AZD5991 6h EC50
# Experimental: as §1
# GIST T1 = conditions: Homo sapiens, GISTT1, 6 h, read-out: AZD5991 6h EC50
# Experimental: as §1
# KMS12PE = conditions: Homo sapiens, KMS-12-PE, 6 h, read-out: AZD5991 6h EC50
# Experimental: as §1
# Bjab = conditions: Homo sapiens, 6 h, read-out: AZD5991 6h EC50
# Experimental: as §1
# GIST 430/654 = conditions: GIST-430/654, 6 h, read-out: AZD5991 6h EC50
# Experimental: as §1
# Calu1 = conditions: Homo sapiens, Calu-1, 6 h, read-out: AZD5991 6h EC50
# Experimental: as §1
# H2171 = conditions: Homo sapiens, NCI-H2171, 6 h, read-out: AZD5991 6h EC50
# Experimental: as §1
# SKMEL2 = conditions: Homo sapiens, SK-MEL-2, 6 h, read-out: AZD5991 6h EC50
# Experimental: as §1
# H2122 = conditions: Homo sapiens, NCI-H2122, 6 h, read-out: AZD5991 6h EC50
# Experimental: as §1
# ARH77 = conditions: Homo sapiens, ARH-77, 6 h, read-out: AZD5991 6h EC50
# Experimental: as §1
# ZR751 = conditions: Homo sapiens, ZR-75-1, 6 h, read-out: AZD5991 6h EC50
# Experimental: as §1
# JJN3 = conditions: Homo sapiens, JJN-3, 6 h, read-out: AZD5991 6h EC50
# Experimental: as §1
# H1703 = conditions: Homo sapiens, NCI-H1703, 6 h, read-out: AZD5991 6h EC50
# Experimental: as §1
# DLD1 = conditions: Homo sapiens, DLD-1, 6 h, read-out: AZD5991 6h EC50
# Experimental: as §1
# MWCL1 = conditions: 6 h, read-out: AZD5991 6h EC50
# Experimental: as §1
# H460 = conditions: Homo sapiens, NCI-H460, 6 h, read-out: AZD5991 6h EC50
# Experimental: as §1
# HBL1 = conditions: HBL1, 6 h, read-out: AZD5991 6h EC50
# Experimental: as §1
# MEWO = conditions: Homo sapiens, 6 h, read-out: AZD5991 6h EC50
# Experimental: as §1
# DU145 = conditions: Homo sapiens, DU-145, 6 h, read-out: AZD5991 6h EC50
# Experimental: as §1
# H358 = conditions: Homo sapiens, NCI-H358, 6 h, read-out: AZD5991 6h EC50
# Experimental: as §1
# Sudhl2 = conditions: Homo sapiens, SU-DHL-2, 6 h, read-out: AZD5991 6h EC50
# Experimental: as §1
# SNU1197 = conditions: 6 h, read-out: AZD5991 6h EC50
# Experimental: as §1
# HCC827 = conditions: Homo sapiens, HCC827, 6 h, read-out: AZD5991 6h EC50
# Experimental: as §1
# H209 = conditions: Homo sapiens, NCI-H209, 6 h, read-out: AZD5991 6h EC50
# Experimental: as §1
# REC1 = conditions: Homo sapiens, Rec1, 6 h, read-out: AZD5991 6h EC50
# Experimental: as §1
# SKOV3 = conditions: Homo sapiens, SK-OV-3, 6 h, read-out: AZD5991 6h EC50
# Experimental: as §1
# RT4 = conditions: Homo sapiens, RT-4, 6 h, read-out: AZD5991 6h EC50
# Experimental: as §1
# OE21 = conditions: OE21, 6 h, read-out: AZD5991 6h EC50
# Experimental: as §1
# OCILY3 = conditions: Homo sapiens, OCI-Ly3, 6 h, read-out: AZD5991 6h EC50
# Experimental: as §1
# L363 = conditions: Homo sapiens, L-363, 6 h, read-out: AZD5991 6h EC50
# Experimental: as §1
# PL21 = conditions: PL-21, 6 h, read-out: AZD5991 6h EC50
# Experimental: as §1
# SNU16 = conditions: Homo sapiens, SNU-16, 6 h, read-out: AZD5991 6h EC50
# Experimental: as §1
smiles,measurement,setting,value
"Cc1c2c(nn1C)CSCc1cc(n(C)n1)CSc1cc(c3ccccc3c1)OCCCc1c(C(=O)O)n(C)c3c-2c(Cl)ccc13 (atropisomer, axis not shown; (Ra)) [(Ra)-7]",EC50,COLO829,> 30 µM
same,EC50,H1734,20.1 µM
same,EC50,MUTZ3,0.026 µM
same,EC50,OV90,> 30 µM
same,EC50,GIST T1,> 30 µM
same,EC50,KMS12PE,0.383 µM
same,EC50,Bjab,0.047 µM
same,EC50,GIST 430/654,18.6 µM
same,EC50,Calu1,> 30 µM
same,EC50,H2171,0.141 µM
same,EC50,SKMEL2,9.48 µM
same,EC50,H2122,15.2 µM
same,EC50,ARH77,23.9 µM
same,EC50,ZR751,> 30 µM
same,EC50,JJN3,0.223 µM
same,EC50,H1703,0.801 µM
same,EC50,DLD1,29.1 µM
same,EC50,MWCL1,27.7 µM
same,EC50,H460,> 30 µM
same,EC50,HBL1,25.8 µM
same,EC50,MEWO,> 30 µM
same,EC50,DU145,> 30 µM
same,EC50,H358,> 30 µM
same,EC50,Sudhl2,0.275 µM
same,EC50,SNU1197,> 30 µM
same,EC50,HCC827,> 30 µM
same,EC50,H209,> 30 µM
same,EC50,REC1,2.01 µM
same,EC50,SKOV3,> 30 µM
same,EC50,RT4,18.1 µM
same,EC50,OE21,0.187 µM
same,EC50,OCILY3,> 30 µM
same,EC50,L363,0.09 µM
same,EC50,PL21,0.409 µM
same,EC50,SNU16,0.183 µM
